The values below come from ChEMBL document CHEMBL1201862, “PubChem BioAssay data set” (2004).

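Interpolation was linear, between the two tested concentrations surrounding the appropriate level; five concentrations were tested over 48 hours in 96-well plates. GI50 is the concentration that inhibits growth by half.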 Activity calls are given as the source filed them. Cut-off read from the data, not from the text of the source: active = GI50 up to about 1.1 µM and inactive = higher.

Common to all, as to assay: DTP human tumour cell line panel, 48 h
The subject of experiment [1] is 786-0.
For experiment [2], the system named is A498.
The subject of experiment [3] is A549.
The subject of experiment [4] is BT-549.
The test system of experiment [5] is CCRF-CEM.
Experiment [6] concerns EKVX.
Experiment [7] deals with HCT-116.
The test system of experiment [8] is HCT-15.
Experiment [9] relates to HT-29.
Experiment [10] relates to Hs-578T.
For experiment [11], the system named is LOX IMVI.
Experiment [12] deals with M14.
For experiment [13], the system named is MDA-MB-435.
For experiment [14], the system named is MOLT-4.
In experiment [15] the test system is Malme-3M.
For experiment [16], the system named is NCI-H23.
In experiment [17] the test system is OVCAR-3.
For experiment [18], the system named is SK-MEL-2.
Experiment [19] concerns SK-MEL-5.
Experiment [20] relates to SR.

For `Cc1ncc([N+](=O)[O-])n1CCNS(=O)(=O)CCCn1ccnc1[N+](=O)[O-]`, the GI50 in [1], in [2], in experiment [3], in [4], in experiment [5] and in experiment [6] was > 100 µM (inactive) in each case. The GI50 (usually the concentration at which growth is held to half of that of the control) in experiment [7] is > 100 µM (inactive); in [8], above 100 µM; in experiment [9] it was > 100 µM (inactive); in experiment [10], > 100 µM (inactive); in experiment [11], > 100 µM (inactive); in experiment [12] it was > 100 µM (inactive). For the same compound, the GI50 in experiment [13], in experiment [14], in experiment [15], in experiment [16], in experiment [17] and in experiment [18] was > 100 µM (inactive) throughout. Besides, the GI50 in [19] and in experiment [20] was > 100 µM (inactive) each time.
Regarding `C1CSC(Sc2nc(SC3=NCCS3)nc(SC3=NCCS3)n2)=N1`, the GI50 in [1], in experiment [2], in experiment [3], in experiment [4], in experiment [5] and in experiment [6] was > 100 µM (inactive) each time. Further, the GI50 in experiment [7] was > 100 µM (inactive); in [8], above 100 µM; in [9], > 100 µM (inactive); in [10] it was > 100 µM (inactive); in [11], > 100 µM (inactive); in experiment [12] it was > 100 µM (inactive). In addition, the GI50 in [13], in [14], in [15], in [16], in experiment [17] and in [18] was > 100 µM (inactive) each time. In addition, the GI50 in experiment [19] and in experiment [20] was > 100 µM (inactive) throughout.
For the compound `COc1ccc(/C=C2/C(=O)C(c3ccccc3)N(c3ccccc3)C2=O)cc1OC` (stereo unspecified), the GI50 in [1] was > 10 µM (inactive); in experiment [2] it was 1.41 µM (inactive); in experiment [3], > 10 µM (inactive); in [4], > 10 µM (inactive); in experiment [5], > 10 µM (inactive); in [6] it was > 10 µM (inactive). Moreover, the GI50 in experiment [7] was > 10 µM (inactive); in [8], above 10 µM; in [9], > 10 µM (inactive); in experiment [10] it was > 10 µM (inactive); in experiment [11], > 10 µM (inactive); in [12], > 10 µM (inactive). The GI50 in experiment [13] was > 10 µM (inactive); in experiment [14] it was > 10 µM (inactive); in experiment [15] it was 1.42 µM (inactive); in experiment [16], > 10 µM (inactive); in experiment [17], > 10 µM (inactive); in experiment [18], > 10 µM (inactive). Moreover, the GI50 in experiment [19] is 0.168 µM (active); in experiment [20] it was > 10 µM (inactive).
With `CN(C)c1n2c3cc([N+](=O)[O-])ccc3[n+]3c(N(C)C)n4ccccc4c3c2c2cccc[n+]12.[O-][Cl+3]([O-])([O-])[O-].[O-][Cl+3]([O-])([O-])[O-]`, the GI50 in experiment [1], in experiment [2], in [3], in experiment [4], in experiment [5] and in [6] was > 100 µM (inactive) in each case. In addition, the GI50 is > 100 µM (inactive) in experiment [7]; above 100 µM in experiment [8]; > 100 µM (inactive) in experiment [9]; 29.9 µM (inactive) in experiment [10]; > 100 µM (inactive) in [11]; > 100 µM (inactive) in experiment [12]. Further, the GI50 in experiment [13], in [14], in experiment [15], in [16], in [17] and in [18] was > 100 µM (inactive) each time. Also, the GI50 in experiment [19] and in experiment [20] was > 100 µM (inactive) throughout.
Regarding `N=C(N)NS(=O)(=O)c1ccc(NCc2cccc3c(=O)c4ccc(Cl)cc4oc23)cc1`, the GI50 in experiment [1] is 9.1 µM (inactive); in experiment [2], > 9.02 µM (inactive); in [3] it was > 6.75 µM (inactive); in experiment [4], 7.18 µM (inactive); in experiment [5] it was 1.82 µM (inactive); in experiment [6], > 9.53 µM (inactive). For the same compound, the GI50 in [7] was 2.99 µM (inactive); in experiment [8] it was 4.93 µM; in experiment [9], 5.71 µM (inactive); in experiment [10], 4.37 µM (inactive); in [11], 4.48 µM (inactive); in experiment [12], 6.7 µM (inactive). In addition, the GI50 in experiment [13] is 5.04 µM (inactive); in experiment [14], 3.57 µM (inactive); in experiment [15], 4.59 µM (inactive); in experiment [16], 8.55 µM (inactive); in experiment [17], > 8.47 µM (inactive); in experiment [18], > 10.4 µM (inactive). Further, the GI50 in experiment [19] is 9.4 µM (inactive); in experiment [20], 2.08 µM (inactive).
Regarding `O=[N+]([O-])c1ccc2sc(/C=N/c3cnccn3)cc2c1`, the GI50 in [1] was 33.5 µM (inactive); in experiment [2], 27.4 µM (inactive); in experiment [3], 64.9 µM (inactive); in experiment [4] it was 85.7 µM (inactive); in experiment [5], 13.7 µM (inactive); in experiment [6], 39.1 µM (inactive). The GI50 in [7] was 37 µM (inactive); in experiment [8] it was 34.4 µM; in experiment [9], 39.2 µM (inactive); in [10], 16.7 µM (inactive); in experiment [11], 22.8 µM (inactive); in experiment [12] it was 37.2 µM (inactive). In addition, the GI50 was 18.4 µM (inactive) in experiment [13]; 10.7 µM (inactive) in experiment [14]; 37 µM (inactive) in [15]; 63 µM (inactive) in experiment [16]; 23.7 µM (inactive) in experiment [17]; 23.2 µM (inactive) in experiment [18]. Also, the GI50 in experiment [19] was 45.8 µM (inactive); in experiment [20] it was 14.5 µM (inactive).
As for `CCN(/C=C1/C(=O)C(c2ccccc2)N(c2ccccc2)C1=O)CC` (stereo unspecified), the GI50 in [1], in [2], in experiment [3], in experiment [4], in [5] and in [6] was > 10 µM (inactive) throughout. Also, the GI50 in experiment [7] is > 10 µM (inactive); in [8], above 10 µM; in [9] it was > 10 µM (inactive); in experiment [10], > 10 µM (inactive); in experiment [11], > 10 µM (inactive); in experiment [12], > 10 µM (inactive). In addition, the GI50 in [13], in experiment [14], in experiment [15], in experiment [16], in experiment [17] and in [18] was > 10 µM (inactive) each time. Further, the GI50 in experiment [19] and in experiment [20] was > 10 µM (inactive) each time.
As to `COC(=O)Cc1c2n(c3ccccc13)C(=O)N1c3ccccc3C(CC(=O)OC)C21` (stereo unspecified), the GI50 in experiment [1] was 13.1 µM (inactive); in experiment [2], 39.9 µM (inactive); in [3], 34.2 µM (inactive); in experiment [4] it was 25.5 µM (inactive); in [5] it was > 100 µM (inactive); in experiment [6], 45.3 µM (inactive). In addition, the GI50 in experiment [7] was 23 µM (inactive); in [8], 69 µM; in experiment [9], > 100 µM (inactive); in experiment [10], 21.1 µM (inactive); in experiment [11], 63.5 µM (inactive); in experiment [13] it was > 100 µM (inactive). Further, the GI50 in [14] was > 100 µM (inactive); in experiment [15] it was 81.3 µM (inactive); in [16], 15.7 µM (inactive); in experiment [17] it was 55.7 µM (inactive); in experiment [18], 38.7 µM (inactive); in experiment [19], 56.2 µM (inactive). The GI50 in experiment [20] is > 100 µM (inactive).
For `CC(C)C1CC(CO)(CNc2cc(Cl)nc(N)n2)C1` (stereo unspecified), the GI50 was > 100 µM (inactive) in [1]; 4.49 µM (inactive) in experiment [2]; 39.2 µM (inactive) in experiment [3]; 65.8 µM (inactive) in experiment [4]; 75.7 µM (inactive) in experiment [5]; 7.06 µM (inactive) in experiment [6]. Besides, the GI50 is 41.3 µM (inactive) in experiment [7]; 22.5 µM in experiment [8]; > 100 µM (inactive) in [9]; 25.6 µM (inactive) in [10]; 10.4 µM (inactive) in experiment [11]; 46.1 µM (inactive) in experiment [13]. For the same compound, the GI50 in experiment [14] is > 10 µM (inactive); in [15] it was 39.2 µM (inactive); in experiment [17], 17.9 µM (inactive); in [18] it was 45.9 µM (inactive); in experiment [19], 3.55 µM (inactive); in [20] it was 14.9 µM (inactive).
Regarding `Cn1c(=O)c2c(nc3[nH]c(=O)c(Br)cn32)n(C)c1=O`, the GI50 was > 100 µM (inactive) in [1]; > 100 µM (inactive) in experiment [2]; > 100 µM (inactive) in experiment [3]; > 100 µM (inactive) in experiment [4]; > 100 µM (inactive) in experiment [5]; 93.8 µM (inactive) in experiment [6]. Also, the GI50 was > 100 µM (inactive) in experiment [7]; above 100 µM in experiment [8]; > 100 µM (inactive) in experiment [9]; > 100 µM (inactive) in experiment [10]; > 100 µM (inactive) in [11]; > 100 µM (inactive) in experiment [12]. The GI50 in experiment [13], in experiment [14], in [16], in experiment [17], in [18] and in experiment [19] was > 100 µM (inactive) each time. The GI50 in experiment [20] is > 100 µM (inactive).
